Reference: ChEMBL document CHEMBL1152976, “Dracotanosides A-D, spermidine glycosides from Dracocephalum tanguticum: structure and amide rotational barrier” (J Nat Prod, 2009)

Legend:
[1] = test system: K562; assay: Cytotoxicity against human drug-sensitive K562 cells after 48 hrs by MTT assay; type: functional, cell-based; settings: K562, 48 h
[2] = Cytotoxicity against human drug-resistant K562/A02 cells after 48 hrs by MTT assay; type: functional, cell-based; settings: K562/A02, 48 h

| Structure (SMILES) | IC50 [1] | IC50 [2] |
| --- | --- | --- |
| O=C1CCN[C@@H](c2ccc(O)cc2)CCCN(C(=O)/C=C\c2ccccc2)CCCN1 | > 200 µM | > 200 µM |
| C[C@@H]1O[C@@H](Oc2ccc([C@H]3CCCN(C(=O)/C=C\c4ccccc4)CCCNC(=O)CCN3)cc2)[C@H](O[C@@H]2O[C@H](COC(=O)c3ccccc3)[C@@H](O)[C@H](O)[C@H]2O)[C@H](O)[C@H]1O [DRACOTANOSIDE A] | > 200 µM | > 200 µM |
| C[C@@H]1O[C@@H](Oc2ccc([C@H]3CCCN(C(=O)/C=C/c4ccccc4)CCCNC(=O)CCN3)cc2)[C@H](O[C@@H]2O[C@H](COC(=O)c3ccccc3)[C@@H](O)[C@H](O)[C@H]2O)[C@H](O)[C@H]1O [DRACOTANOSIDE B] | > 200 µM | > 200 µM |
| C[C@H]1O[C@@H](Oc2ccc([C@H]3CCCN(C(=O)/C=C\c4ccccc4)CCCNC(=O)CCN3)cc2)[C@@H](O)[C@@H](O)[C@@H]1O [DRACOTANOSIDE C] | > 200 µM | > 200 µM |
| C[C@H]1O[C@@H](Oc2ccc([C@H]3CCCN(C(=O)/C=C/c4ccccc4)CCCNC(=O)CCN3)cc2)[C@@H](O)[C@@H](O)[C@@H]1O [DRACOTANOSIDE D] | > 200 µM | > 200 µM |
